Results reported in patent US7834024B2, “Compositions and methods for inhibition of the JAK pathway” (Rigel Pharmaceuticals, Inc., priority 2007, dated 2010).
pIC50: −log10 of the molar value. Like-named read-outs stand apart in the source and are kept apart here.

System: Ramos B-Cell Line Stimulated with IL-4 (JAK-1 and JAK-3 / Stat-6, CD23)
Test: Assay for Ramos B-Cell Line Stimulated with IL-4 (CD23 upregulation, FACS)
Assay type: cell-based
Details: human Ramos B cells, compound 1 hour, IL-4 50 units/mL for 20-24 hours, anti-CD23-PE FACS, read-out: Example 2 (IC50)
Summary of the method: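 Human Ramos B cells (5×10^4 per point, RPMI with 5% serum) pre-incubated 1 hour at 37° C with compound or DMSO, then stimulated with IL-4 at 50 units/mL final for 20-24 hours. CD23 upregulation measured by flow cytometry.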

| Molecule | pIC50 (Homo sapiens, Ramos) | pIC50 |
| --- | --- | --- |
| NC(=O)COc1cccc(Nc2nc(Nc3ccc(C(N)=O)cc3)ncc2F)c1 [Compound I-32, N4-(3-Aminocarbonylmethoxyphenyl)-N2-(4-aminocarbonylphenyl)-5-fluoro-2,4-pyrimidinediamine] | 6.74 |  |
| Cc1nc(COc2ccc(Nc3nc(Nc4ccc(CC#N)cc4)ncc3F)cc2)no1 [Compound I-77, N2-(4-Cyanomethylphenyl)-5-fluoro-N4-[4-((5-methyl-1,2,4-oxadiazol-3-yl)methoxy)phenyl]-2,4-pyrimidinediamine] | 6.61 |  |
| CN1CCN(C(=O)c2cccc(Nc3ncc(F)c(Nc4ccc(OCC(N)=O)cc4)n3)c2)CC1 [Compound I-37, N4-(4-Aminocarbonylmethoxyphenyl)-5-fluoro-N2-[3-((4-methylpiperazin-1-yl)carbonyl)phenyl]-2,4-pyrimidinediamine] | 5.65 |  |
| N#CCc1ccc(Nc2ncc(F)c(Nc3ccc(F)c(C#N)c3)n2)cc1 [Compound I-118, N4-(3-Cyano-4-fluorophenyl)-N2-(4-cyanomethylphenyl)-5-fluoro-2,4-pyrimidinediamine] | 3.99 |  |
| C#CCOc1ccc(Nc2nc(Nc3cccc(C(N)=S)c3)ncc2F)cc1 [Compound I-5, N2-(3-Aminocarbonothioylphenyl)-5-fluoro-N4-[4-(2-propynyloxy)phenyl]-2,4-pyrimidinediamine] | 5.94 |  |
| N#CCOc1ccc(Nc2nc(Nc3ccc(CC#N)cc3)ncc2F)cc1Cl [Compound I-100, N4-(3-Chloro-4-cyanomethoxyphenyl)-N2-(4-cyanomethylphenyl)-5-fluoro-2,4-pyrimidinediamine] | 7.08 |  |
| CC1(C)Oc2ccc(Nc3nc(Nc4ccc5oc(C(=O)NCCN6CCOCC6)cc5c4)ncc3F)nc2NC1=O [Compound V-1, N4-[2,2-Dimethyl-3-oxo-4H-5-pyrido[1,4]oxazin-6-yl]-5-fluoro-N2-[2-(2-(N-morpholinyl)ethylaminocarbonyl)benzofuran-5-yl]-2,4-pyrimidinediamine] | 6.84 |  |
| N#CCc1ccc(Nc2ncc(F)c(Nc3ccc(Cc4ccncc4)cc3)n2)cc1 [Compound I-131, N2-(4-Cyanomethylphenyl)-5-fluoro-N4-[4-(4-pyridinylmethyl)phenyl]-2,4-pyrimidinediamine] | 6.42 |  |
| NC(=O)c1cccc(Nc2ncc(F)c(Nc3ccc(OCc4ccccn4)cc3)n2)c1 [Compound I-133, N2-(3-Aminocarbonylphenyl)-5-fluoro-N4-[4-(2-pyridinylmethyleneoxy)phenyl]-2,4-pyrimidinediamine] |  | 5.81 |
| N#CCc1ccc(Nc2nc(Nc3ccc(C(N)=O)cc3)ncc2F)cc1 [Compound I-67, N2-(4-Aminocarbonylphenyl)-N4-(4-cyanomethylphenyl)-5-fluoro-2,4-pyrimidinediamine] | 6.77 |  |
| Cc1cnc(Nc2cccc(C#N)c2)nc1Nc1ccc2c(c1)NC(=O)CS2 [II-9, N2-(3-Cyanophenyl)-5-methyl-N4-(3-oxo-2H,4H-benzo[1,4]thiazin-6-yl)-2,4-pyrimidinediamine] | 7.13 |  |
| CN1CCN(C(=O)c2ccc(Nc3ncc(F)c(Nc4cccc(OCC(N)=O)c4)n3)cc2)CC1 [Compound I-48, N4-(3-Aminocarbonylmethoxyphenyl)-5-fluoro-N2-[4-((4-methylpiperazin-1-yl)carbonyl)phenyl]-2,4-pyrimidinediamine] | 6.04 |  |
| CN1CCN(c2ccc(Nc3ncc(F)c(Nc4ccc(OCC#N)cc4)n3)cc2C(N)=O)CC1 [Compound I-42, N2-[3-Aminocarbonyl-4-(4-methylpiperazin-1-yl)phenyl]-N4-(4-cyanomethoxyphenyl)-5-fluoro-2,4-pyrimidinediamine] | 7.85 |  |
| Cc1cc(COc2ccc(Nc3nc(Nc4ccc(CC#N)cc4)ncc3F)cc2)no1 [Compound I-130, N2-(4-Cyanomethylphenyl)-5-fluoro-N4-[4-((5-methylisoxazol-3-yl)methyleneoxy)phenyl]-2,4-pyrimidinediamine] |  | 6.46 |
| N#CCOc1ccc(Nc2nc(Nc3ccc(CC#N)cc3)ncc2F)cc1F [Compound I-103, N4-(4-Cyanomethoxy-3-fluorophenyl)-N2-(4-cyanomethylphenyl)-5-fluoro-2,4-pyrimidinediamine] | 7.08 |  |
| CNC(=O)COc1cccc(Nc2ncc(C)c(Nc3ccc4c(c3)NC(=O)CO4)n2)c1 [II-5, 5-Methyl-N2-[3-(N-methylaminocarbonylmethyleneoxy)phenyl]-N4-(3-oxo-2H,4H-benzo[1,4]oxazin-6-yl)-2,4-pyrimidinediamine] |  | 7.55 |
| N#CCc1ccc(Nc2ncc(F)c(Nc3cccc(OCC(N)=O)c3)n2)cc1 [Compound I-65, N4-(3-Aminocarbonylmethoxyphenyl)-N2-(4-cyanomethylphenyl)-5-fluoro-2,4-pyrimidinediamine] | 6.72 |  |
| Cc1noc(COc2cccc(Nc3nc(Nc4ccc(CC#N)cc4)ncc3F)c2)n1 [Compound I-129, N2-(4-Cyanomethylphenyl)-5-fluoro-N4-[3-((3-methyl-1,2,4-oxadiazol-5-yl)methyleneoxy)phenyl]-2,4-pyrimidinediamine] |  | 5.89 |

| Molecule | pIC50 (Homo sapiens, Ramos) | pIC50 |
| --- | --- | --- |
| N#CCOc1cccc(Nc2nc(Nc3ccc(CC#N)cc3)ncc2F)c1 [Compound I-66, N4-(3-Cyanomethoxyphenyl)-N2-(4-cyanomethylphenyl)-5-fluoro-2,4-pyrimidinediamine] | 7.37 |  |
| CN1CCN(c2ccc(Nc3ncc(F)c(Nc4ccc(CC#N)cc4)n3)cc2C(N)=O)CC1 [Compound I-74, N2-[3-Aminocarbonyl-4-(4-methylpiperazin-1-yl)phenyl]-N4-(4-cyanomethylphenyl)-5-fluoro-2,4-pyrimidinediamine] | 6.37 |  |
| CNC(=O)COc1cccc(Nc2ncc(F)c(Nc3cc(OC)c(OC)c(OCC#N)c3)n2)c1 [Compound I-109, N4-(3-Cyanomethoxy-4,5-dimethoxyphenyl)-5-fluoro-N2-[3-(N-methylaminocarbonylmethyleneoxy)phenyl]-2,4-pyrimidinediamine] |  | 6.18 |
| N#CCc1ccc(Nc2ncc(F)c(Nc3ccc(OCC(N)=O)cc3)n2)cc1 [Compound I-76, N4-(4-Aminocarbonylmethoxyphenyl)-N2-(4-cyanomethylphenyl)-5-fluoro-2,4-pyrimidinediamine] | 6.56 |  |
| N#CCc1ccc(Nc2nc(Nc3cccc(C#N)c3)ncc2F)cc1 [Compound I-70, N4-(4-Cyanomethylphenyl)-N2-(3-cyanophenyl)-5-fluoro-2,4-pyrimidinediamine] | 5.94 |  |
| CCN(CC)CCNC(=O)c1ccc(Nc2ncc(F)c(Nc3ccc(OCc4ccccn4)cc3)n2)cc1 [Compound I-135, N2-[4-(2-(N,N-Diethylamino)ethylaminocarbonyl)phenyl)-5-fluoro-N4-[4-(2-pyridinylmethyleneoxy)phenyl]-2,4-pyrimidinediamine] |  | 7.25 |
| N#CCOc1cccc(Nc2nc(Nc3cccc(C#N)c3)ncc2F)c1 [Compound I-47, N4-(3-Cyanomethoxyphenyl)-N2-(3-cyanophenyl)-5-fluoro-2,4-pyrimidinediamine] | 6.76 |  |
| NC(=O)COc1ccc(Nc2nc(Nc3ccc(C(N)=O)cc3)ncc2F)cc1 [Compound I-25, N4-(4-Aminocarbonylmethoxyphenyl)-N2-(4-aminocarbonylphenyl)-5-fluoro-2,4-pyrimidinediamine] | 6.38 |  |
| COC(=O)c1ccc(Nc2nc(Nc3cccc(C(N)=O)c3)ncc2F)s1 [Compound I-123, N2-(3-Aminocarbonylphenyl)-5-fluoro-N4-(5-methoxycarbonylthiophen-2-yl)-2,4-pyrimidinediamine] | 5.98 |  |
| CC(C#N)Oc1ccc(Nc2nc(Nc3cccc(C#N)c3)ncc2F)cc1 (stereo not drawn) [Compound I-80, N4-[4-(I-Cyanoethoxy)phenyl]-N2-(3-cyanophenyl)-5-fluoro-2,4-pyrimidinediamine] |  | 6.72 |
| Cc1noc(COc2ccc(N(C)c3nc(Nc4ccc(C(N)=O)cc4)ncc3F)cc2)n1 [Compound I-15, N2-(4-Aminocarbonylphenyl)-5-fluoro-N4-methyl-N4-[4-((3-methyl-1,2,4-oxadiazol-5-yl)methyleneoxy)phenyl]-2,4-pyrimidinediamine] |  | 6.16 |
| CNC(=O)COc1cc(Nc2ncc(F)c(Nc3ccc4c(c3)NC(=O)C(F)(F)O4)n2)cc(OC)c1OC [II-20, N4-(2,2-Difluoro-3-oxo-4H-benzo[1,4]oxazin-6-yl)-N2-[4,5-Dimethoxy-3-(N-methylaminocarbonylmethyleneoxy)phenyl]-5-fluoro-2,4-pyrimidinediamine] |  | 6.32 |
| Cc1cnc(Nc2cccc(C(N)=O)c2)nc1Nc1ccc2c(n1)N(C)C(=O)C(C)(C)O2 [II-43, N2-(3-Aminocarbonylphenyl)-5-methyl-N4-(2,2,4-trimethyl-3-oxo-5-pyrido[1,4]oxazin-6-yl)-2,4-pyrimidinediamine] |  | 6.64 |
| 5-Fluoro-N2-[2-(2-(N-morpholinyl)ethylaminocarbonyl)benzofuran-5-yl]-N4-[4-(2-propynyloxy)phenyl]-2,4-pyrimidinediamine [III-3] |  | 6.83 |
| N4-(4-(1-Cyanoethoxy)-3,5-dimethyl phenyl]-5-fluoro-N2-[4-((4-methylpiperazin-1-yl)carbonyl)phenyl]-2,4-pyrimidinediamine [Compound I-98] |  | 6.56 |
| Cc1cc(Nc2nc(Nc3cccc(C(N)=O)c3)ncc2F)ccc1OC(C)C#N (stereo not drawn) [Compound I-93, N2-(3-Aminocarbonylphenyl)-N4-[4-(1-cyanoethoxy)-3-methylphenyl]-5-fluoro-2,4-pyrimidinediamine] | 6.48 |  |
| CC(C)(C#N)Oc1ccc(Nc2nc(Nc3ccc(C(N)=O)cc3)ncc2F)cc1 [Compound I-84, N2-(4-Aminocarbonylphenyl)-N4-[4-(1-cyano-1-methylethoxy)phenyl]-5-fluoro-2,4-pyrimidinediamine] | 6.83 |  |
| Cc1cc(Nc2nc(Nc3cccc(C(N)=O)c3)ncc2F)cc(C)c1OC(C)C#N (stereo not drawn) [Compound I-96, N2-(3-Aminocarbonylphenyl)-N4-[4-(1-cyanoethoxy)-3,5-dimethylphenyl]-5-fluoro-2,4-pyrimidinediamine] | 6.59 |  |
